The test system of test [1] is HCT116 p53−/− cells. The test can be described thus: Antiproliferative activity, sulforhodamine B (SRB) assay. The format is cell-based, human. On the procedure:
(§1) Tumor cells were cultured in RPMI-1640 with UltraGlutamine (Lonza, VWR), supplemented with 10% fetal bovine serum (FBS; Gibco, Alfagene) and maintained in a humidified incubator at 37 °C with 5% CO2. Cell lines were seeded in 96-well plates at the cells/well density of 5.0 × 10^3.

The test system of test [2] is HCT116 p53+/+ cells. The test is described as above. The format is cell-based, human. The following applies: for S.I. (selectivity index): HCT116 p53−/− versus HCT116 p53+/+; for increase in the antiproliferative activity on bromine insertion at the C-2 indole: versus non-brominated parent isoindolinone. How it is done:
as §1

Test [3] has as its target T1, wt p53 core domain (DNA Binding Domain; p53DBD; residues 94–312) (Homo sapiens, UniProt P04637).
T1 construct: residues 94–312; host or cells: E. coli BL21 (DE3)-[pLys-S]
The test is described as follows: Differential scanning fluorimetry (DSF) thermostability. The following applies: 13d 2.5 mM, MQ 2 mM; for Tm of the wt p53DBD: 5% DMSO, mean ± SD, three assays. How it is done:
Expression of wt p53 core domain. The wt p53DBD was expressed in E. coli BL21 (DE3)-[pLys-S] in fusion with an N-terminal 21-residue tag containing the hexa-histidyl peptide (His6) and the thrombin recognition sequence, using the pET15b-based expression construct.
For protein expression 10 mL of an overnight (ON) culture was used to inoculate 1 L of LB medium supplemented with 1 mL of ampicillin 100 mg/mL and 1mL of zinc sulphate 100 mM. Culture medium was incubated at 37 °C, 140 rpm till an OD600nm of ~0.5. Protein expression was then induced by adding 0.5 mL of isopropyl β-D-1-thiogalactopyranoside (IPTG) 1M (Cfinal = 0.5 mM) and bacterial growth at 27 °C, 120 rpm ON. E. coli cells were pelleted by centrifugation for 10 min, 4000 rpm, at 4 °C. The cellular pellet was resuspended in 10 mL of Lysis buffer (Sodium phosphate 50 mM; NaCl 300 mM; glycerol 10%, pH 7.4) supplemented with 1mg/mL Lysozyme (Biochemica Applichem Panreac), 1 mM of phenylmethanesulfonyl fluoride (PMSF) (Merck), 5 µg of DNAse I (Panreac applichem) and 0.8% of Triton X-100 (Merck). After a first step of chemical lysis (30 min incubation, at 4 °C), cells were further disrupted by four cycles of sonication, at 4 °C, during 60 s at 50% duty free cycle on a Vibra Cell (Media Cibernetics). The lysate was subsequently cleared by centrifugation at 10,000 rpm, 40 min, at 4 °C and the supernatant containing the soluble proteins were collected.
Purification of human wt p53DBD and His6-tag removal. Immobilized Metal Affinity Chromatography (IMAC) was performed to purify the wt p53DBD using a nickel-nitrilotriacetic acid (Ni-NTA) agarose resin (QIAGEN). Briefly, 1 mL of Ni^2+ resin was pre-equilibrated using MilliQ water (3 × 1 mL) and Lysis buffer containing 10 mM imidazole (3 × 1 mL). The soluble fraction of cellular lysate was supplemented with 6.8 µL of β-mercaptoethanol and 33.2 µL of imidazole 3 M to obtain the final concentrations of […] and 10 mM, respectively. The lysate was added to the pre-equilibrated resin and protein binding was performed by incubation on an orbital shaker for one hour at 4 °C. The suspension was added to a 9 cm polypropylene conical column (Poly-Prep columns; BioRad) and protein purification was performed by gravity flow with an imidazole gradient consisting of three washing steps (2 × 5 mL of Lysis buffer, 20 mM imidazole; 2 × 5 mL of Lysis buffer, 50 mM imidazole; and 1 × 2.5 mL Lysis buffer, 75 mM imidazole) and an elution step with 5 × 500 µL of Lysis buffer, 250 mM imidazole. Protein eluted fractions were assessed by SDS-PAGE and Coomassie staining. Size exclusion chromatography was performed on the pooled protein eluted fractions, using an AKTA prime plus system (GE Healthcare) equipped with a UV detector (280 nm), a HiLoad 16/60, Superdex 200 prep grade column (GE Healthcare) and SEC buffer (25 mM potassium phosphate buffer, 150 mM NaCl, pH 7.5). The fractions corresponding to the wt p53DBD monomers were collected and treated with thrombin (8 units of thrombin/mg wt p53DBD). The thrombin cleavage was conducted for 18 h at rt at pH 7.4 in the assay buffer recommended by the supplier. Before and after digestion protein concentration was determined through Bradford method.
Thermostability of wt p53DBD core domain assessed by differential scanning fluorimetry (DSF). An amount of 5 μg of thrombin-cleaved wt p53DBD was incubated with testing compounds (2.5 mM) in 25 mM potassium phosphate buffer and 150 mM NaCl, pH 7.5 in a final volume of 50 µL containing 2 µL of 1 mM DTT or 1 mM TCEP to promote p53 core domain redox control, and Sypro Orange at 2.5x final concentration. The fluorescence was assessed on a C1000 Touch thermal cycler equipped with a CFX96 optical reaction module (BioRad) and the FRET channel (λexc 450–490 nm and λem 560–580 nm). Temperature was ramped from 20 to 90 °C with a rate of 0.2 °C/12 sec. The Tm values were calculated using Origin 8 Software. […]

The mark [4] stands for this setting: Homo sapiens, HCT-116, 48 h, 48 h treatment, mean ± SEM of 3–5 independent experiments, read-out: HCT116 p53−/− GI50.
[5] abbreviates: Homo sapiens, HCT-116, 48 h treatment, mean ± SEM of 3–5 independent experiments, read-out: HCT116 p53+/+ GI50.
The mark [6] stands for this setting: Homo sapiens, HCT-116, 48 h, 48 h treatment, mean ± SEM of 5 independent experiments, read-out: HCT116 p53−/− GI50.
Where [7] appears, read: Homo sapiens, HCT-116, 48 h treatment, mean ± SEM of 5 independent experiments, read-out: HCT116 p53+/+ GI50.

Like-named read-outs stand apart in the source and are kept apart here.

T1 sequence (P04637 94-312): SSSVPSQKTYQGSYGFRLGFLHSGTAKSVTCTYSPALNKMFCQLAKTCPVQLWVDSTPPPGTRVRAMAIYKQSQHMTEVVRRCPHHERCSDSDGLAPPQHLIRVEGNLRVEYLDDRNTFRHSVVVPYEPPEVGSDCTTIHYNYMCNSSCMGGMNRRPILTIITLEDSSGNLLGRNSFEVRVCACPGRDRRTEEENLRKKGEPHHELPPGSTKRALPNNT

Regarding `O=C1c2ccccc2[C@@]2(c3ccc(Cl)cc3)OC[C@H](Cc3c(Br)[nH]c4ccccc34)N12` [Compound 13h, (3S, 9bR)-3-((2-bromo-1H-indol-3-yl)methyl)-9b-(4-chlorophenyl)-2,3-dihydrooxazolo[2,3-a]isoindol-5(9bH)-one], the GI50 in test [1] (setting [4]) turned out to be 5.8 ± 0.4 µM; in test [2] (setting [5]), 5.8 ± 0.3 µM. Also, the “S.I. (selectivity index)” value in test [2] is reported as 1.0. The “increase in the antiproliferative activity on bromine insertion at the C-2 indole” value in test [2] is reported as 1.5 fold.
Taken in the same sequence, the figures for `O=C1c2ccccc2[C@@]2(c3ccc(F)cc3)OC[C@H](Cc3c(Br)[nH]c4ccccc34)N12` [Compound 13g, (3S, 9bR)-3-((2-bromo-1H-indol-3-yl)methyl)-9b-(4-fluorophenyl)-2,3-dihydrooxazolo[2,3-a]isoindol-5(9bH)-one] were 6.7 ± 1.6 µM, 6.95 ± 0.6 µM, 1.0 and 1.2 fold.
Regarding `CS(=O)(=O)n1c(Br)c(C[C@H]2CO[C@]3(c4ccccc4)c4ccccc4C(=O)N23)c2ccccc21` [Compound 13n, (3S, 9bR)-3-((2-bromo-1-(methylsulfonyl)-1H-indol-3-yl)methyl)-9b-phenyl-2,3-dihydrooxazolo[2,3-a]isoindol-5(9bH)-one], the GI50 in test [1] (setting [4]) is 13.5 ± 0.5 µM; in test [2] (setting [5]) it was 12.5 ± 0.5 µM. The “S.I. (selectivity index)” value in test [2] was determined as 1.1.
For `Cc1ccc(S(=O)(=O)n2c(Br)c(C[C@H]3CO[C@]4(c5ccccc5)c5ccccc5C(=O)N34)c3ccccc32)cc1` [Compound 13o, (3S, 9bR)-3-((2-bromo-1-tosyl-1H-indol-3-yl)methyl)-9b-phenyl-2,3-dihydrooxazolo[2,3-a]isoindol-5(9bH)-one], the results for the GI50 in test [1] (setting [4]) and in test [2] (setting [5]) were 20.4 ± 1.15 µM and 34 ± 4 µM, respectively. Moreover, the “less active derivative compared with SLMP53-2 (7)” value in test [2] (HCT116 p53+/+) amounted to 4.0 fold. The “S.I. (selectivity index)” value in test [2] was 0.6.
For the compound `COc1ccc(C2=N[C@@H](c3ccc(Cl)cc3)[C@@H](c3ccc(Cl)cc3)N2C(=O)N2CCNC(=O)C2)c(OC(C)C)c1` [nutlin-3a, reference compound], the GI50 was determined as 24 ± 0.7 µM in test [1] (control of the SRB assay, 48 h, read-out: GI50 in HCT116 p53−/−) and 3.2 ± 1 µM in test [2] (control of the SRB assay, 48 h, read-out: GI50 in HCT116 p53+/+).
As for `CC(=O)n1c(Br)c(C[C@H]2CO[C@]3(c4ccccc4)c4ccccc4C(=O)N23)c2ccccc21` [Compound 13m, (3S, 9bR)-3-((1-acetyl-2-bromo-1H-indol-3-yl)methyl)-9b-phenyl-2,3-dihydrooxazolo[2,3-a]isoindol-5(9bH)-one], the GI50 in test [1] (setting [4]) worked out at 22.5 ± 2.5 µM; in test [2] (setting [5]), 13.05 ± 0.05 µM. Also, the “S.I. (selectivity index)” value in test [2] is listed as 1.7.
For `CCCn1c(Br)c(C[C@@H]2CO[C@@]3(c4ccccc4)c4ccccc4C(=O)N23)c2ccccc21` [13d′, (3R, 9bS)-3-((2-bromo-1-propyl-1H-indol-3-yl)methyl)-9b-phenyl-2,3-dihydrooxazolo[2,3-a]isoindol-5(9bH)-one], the GI50 in test [1] (setting [4]) was found to be 25.4 ± 1.2 µM; in test [2] (setting [5]) it was 31.1 ± 4 µM.
On to `O=C1c2ccccc2[C@@]2(c3ccc(Cl)c([N+](=O)[O-])c3)OC[C@H](Cc3c(Br)[nH]c4ccccc34)N12` [Compound 13i, (3S, 9bR)-3-((2-bromo-1H-indol-3-yl)methyl)-9b-(4-chloro-3-nitrophenyl)-2,3-dihydrooxazolo[2,3-a]isoindol-5(9bH)-one], for which the GI50 was found to be 22.2 ± 1.2 µM in test [1] (setting [4]) and 23.3 ± 0.9 µM in test [2] (setting [5]). For the same compound, in test [2], the “S.I. (selectivity index)” value is listed as 1.0.
In the case of `CCn1c(Br)c(C[C@H]2CO[C@]3(c4ccccc4)c4ccccc4C(=O)N23)c2ccccc21` [Compound 13j, (3S, 9bR)-3-((2-bromo-1-ethyl-1H-indol-3-yl)methyl)-9b-phenyl-2,3-dihydrooxazolo[2,3-a]isoindol-5(9bH)-one], the GI50 in test [1] (setting [4]) amounted to 16 ± 2 µM; in test [2] (setting [5]), 13 ± 1.01 µM. Further, the “S.I. (selectivity index)” value in test [2] is on record as 1.2.
For the compound `C[C@]12OC[C@H](C[C@@H]3C(=O)Nc4ccccc43)N1C(=O)c1ccccc12` [SLMP53-1_M3a, (3S,9bR)-9b-methyl-3-(((S)-2-oxoindolin-3-yl)methyl)-2,3-dihydrooxazolo[2,3-a]isoindol-5(9bH)-one], the GI50 in test [1] (setting [6]) and in test [2] (setting [7]) was above 50 µM throughout.
Take `C=C1C(=O)C2CCN1CC2` [MQ, Methylene quinuclidinone, reference compound]: the “ΔTm of the wt p53DBD” value in test [3] (DTT 1 mM) is 2.28 °C; in test [3] (TCEP 1 mM) it was 2.11 °C. Moreover, the “Tm of the wt p53DBD” value in test [3] (DTT (1 mM)) is 42.22 ± 0.30 °C; in test [3] (TCEP (1 mM)), 43.27 ± 1.15 °C.
On to `Cn1c(Br)c(C[C@H]2CO[C@]3(c4ccccc4)c4ccccc4C(=O)N23)c2ccccc21` [Compound 13c, (3S, 9bR)-3-((2-bromo-1-methyl-1H-indol-3-yl)methyl)-9b-phenyl-2,3-dihydrooxazolo[2,3-a]isoindol-5(9bH)-one], for which the figures for the GI50 in test [1] (setting [4]) and in test [2] (setting [5]) were 10.8 ± 2 µM and 25.6 ± 1.4 µM, respectively. For the same compound, the “S.I. (selectivity index)” value in test [2] worked out at 0.4.
In the case of `C[C@]12OC[C@H](C[C@H]3C(=O)Nc4ccccc43)N1C(=O)c1ccccc12` [SLMP53-1_M3b, (3S,9bR)-9b-methyl-3-(((R)-2-oxoindolin-3-yl)methyl)-2,3-dihydrooxazolo[2,3-a]isoindol-5(9bH)-one], the GI50 in test [1] (setting [6]) and in test [2] (setting [7]) was above 50 µM in each case.
Regarding `O=C1c2ccccc2[C@@]2(c3ccccc3)OC[C@H](Cc3c(Br)[nH]c4ccccc34)N12` [Compound 13a, (3S, 9bR)-3-((2-bromo-1H-indol-3-yl)methyl)-9b-phenyl-2,3-dihydrooxazolo[2,3-a]isoindol-5(9bH)-one], the GI50 in test [1] (setting [4]) is 10.5 ± 2.6 µM; in test [2] (setting [5]), 14.6 ± 0.4 µM. For the same compound, the “S.I. (selectivity index)” value in test [2] amounted to 0.7.
`O=C1c2ccccc2[C@@]2(c3ccccc3)OC[C@H](Cc3c(Br)n(C(=O)c4ccccc4)c4ccccc34)N12` [Compound 13l, (3S, 9bR)-3-((1-benzoyl-2-bromo-1H-indol-3-yl)methyl)-9b-phenyl-2,3-dihydrooxazolo[2,3-a]isoindol-5(9bH)-one]: the figures for the GI50 in test [1] (setting [4]) and in test [2] (setting [5]) were above 50 µM and 23.2 ± 1.15 µM, respectively.

Source of the values: PMC9967700, “Metabolism-Guided Optimization of Tryptophanol-Derived Isoindolinone p53 Activators” (Pharmaceuticals, 2023).
